Data as given in paper doi:10.1101/2022.02.21.481260v1 (biorxiv, 2022).
pIC50: −log10 of the molar value.

Biological target: T1, hFAP (recombinant human Fibroblast Activation Protein) (Homo sapiens, UniProt Q12884)
T1 sequence (Q12884 26-760 limits assumed): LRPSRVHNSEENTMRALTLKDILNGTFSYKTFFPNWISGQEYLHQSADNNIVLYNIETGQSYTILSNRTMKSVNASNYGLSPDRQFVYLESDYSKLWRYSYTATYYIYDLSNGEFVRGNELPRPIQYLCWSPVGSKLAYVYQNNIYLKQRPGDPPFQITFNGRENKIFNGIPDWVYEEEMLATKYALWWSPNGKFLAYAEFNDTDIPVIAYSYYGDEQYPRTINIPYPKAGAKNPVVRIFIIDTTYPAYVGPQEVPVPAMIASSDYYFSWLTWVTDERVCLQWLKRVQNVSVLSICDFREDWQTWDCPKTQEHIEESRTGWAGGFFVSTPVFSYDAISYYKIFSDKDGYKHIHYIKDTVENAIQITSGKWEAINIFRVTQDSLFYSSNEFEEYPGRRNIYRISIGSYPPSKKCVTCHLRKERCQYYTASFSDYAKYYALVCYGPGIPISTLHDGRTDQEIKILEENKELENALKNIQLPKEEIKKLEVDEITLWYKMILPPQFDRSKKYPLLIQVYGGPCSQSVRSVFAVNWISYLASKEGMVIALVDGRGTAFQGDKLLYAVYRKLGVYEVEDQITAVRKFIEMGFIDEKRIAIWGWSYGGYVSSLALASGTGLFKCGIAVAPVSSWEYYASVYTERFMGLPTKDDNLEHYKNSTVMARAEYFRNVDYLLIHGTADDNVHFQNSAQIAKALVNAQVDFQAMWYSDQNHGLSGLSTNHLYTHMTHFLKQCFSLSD
Test: biochemical

N#C[C@@H]1CC(F)(F)CN1C(=O)CNC(=O)c1ccnc2c(NC(=O)CCC(=O)NCCNC(=O)CCC(C(=O)O)N3CCN(CC(=O)O)CCN(CC(=O)O)CCN(CC(=O)O)CC3)cccc12 (stereo partly shown) [compound 1, OncoFAP-DOTAGA]
pIC50: 9.40
